Laboratory results from the Kinase Knowledgebase extract (Sharma et al. 2016).

How the values were obtained:
EGFR (human) [1] = target: EGFR (human) (UniProt P00533); conditions: a431
EGFR (human) [2] = target: EGFR (human) (UniProt P00533); conditions: a431; remark: listed apart in the source
EGFR (human) [3] = target: EGFR (human) (UniProt P00533); conditions: A431
EGFR (human) [4] = target: EGFR (human) (UniProt P00533); conditions: a431; remark: listed apart in the source

EGFR (human), sequence (P00533 whole entry, looked up): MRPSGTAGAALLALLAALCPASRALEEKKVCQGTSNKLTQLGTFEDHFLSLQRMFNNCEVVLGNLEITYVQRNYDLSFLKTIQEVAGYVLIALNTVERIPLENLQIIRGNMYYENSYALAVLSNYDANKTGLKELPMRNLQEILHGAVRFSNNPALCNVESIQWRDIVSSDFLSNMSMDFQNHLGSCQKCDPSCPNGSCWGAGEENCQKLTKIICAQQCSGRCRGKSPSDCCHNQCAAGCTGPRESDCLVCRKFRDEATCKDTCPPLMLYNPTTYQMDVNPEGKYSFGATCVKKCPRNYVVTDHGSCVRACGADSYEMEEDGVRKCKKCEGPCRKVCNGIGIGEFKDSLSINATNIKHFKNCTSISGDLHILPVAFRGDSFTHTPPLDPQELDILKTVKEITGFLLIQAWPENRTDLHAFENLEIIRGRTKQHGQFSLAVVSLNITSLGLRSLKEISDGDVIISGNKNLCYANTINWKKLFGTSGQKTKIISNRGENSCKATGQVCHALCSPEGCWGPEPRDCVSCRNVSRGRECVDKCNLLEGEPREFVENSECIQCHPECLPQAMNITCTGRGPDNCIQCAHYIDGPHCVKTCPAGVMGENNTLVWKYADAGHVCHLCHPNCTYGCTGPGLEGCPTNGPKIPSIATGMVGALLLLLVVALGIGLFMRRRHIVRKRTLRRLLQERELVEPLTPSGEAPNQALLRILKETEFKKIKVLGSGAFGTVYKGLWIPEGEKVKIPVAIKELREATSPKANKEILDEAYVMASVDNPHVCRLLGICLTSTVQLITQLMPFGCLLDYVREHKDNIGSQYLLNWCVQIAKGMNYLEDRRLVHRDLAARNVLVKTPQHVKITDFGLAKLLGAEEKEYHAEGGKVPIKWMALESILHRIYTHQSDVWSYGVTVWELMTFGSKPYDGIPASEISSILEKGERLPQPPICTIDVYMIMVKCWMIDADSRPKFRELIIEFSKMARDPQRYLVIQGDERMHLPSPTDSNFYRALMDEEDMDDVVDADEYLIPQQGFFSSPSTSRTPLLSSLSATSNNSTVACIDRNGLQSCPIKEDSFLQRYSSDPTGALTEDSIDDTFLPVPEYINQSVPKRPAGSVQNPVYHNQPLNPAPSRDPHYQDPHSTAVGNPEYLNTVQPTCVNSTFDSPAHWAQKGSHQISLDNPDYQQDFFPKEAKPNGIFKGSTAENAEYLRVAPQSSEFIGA

SMILES | IC50 (EGFR (human) [1]) [µM] | IC50 (EGFR (human) [2]) [µM] | IC50 (EGFR (human) [3]) [µM] | inhibition (EGFR (human) [3]) | IC50 (EGFR (human) [4]) [nM] | inhibition (EGFR (human) [4])
COc1cc2ncnc(N3CCN(c4ccc([N+](=O)[O-])cc4)CC3)c2cc1OC | 40.8 | > 100 | 0.0168 |  |  | 
COc1cc2ncnc(NCCNc3ccccc3)c2cc1OC | > 100 | > 100 | 31.6 |  |  | 
COc1ccc(CCCNc2ncnc3cc(OC)c(OC)cc23)cc1OC | 22.8 | 3 |  | 0 |  | 
COc1cc2ncnc(N3CCN(c4cccc(Cl)c4)CC3)c2cc1OC | > 100 | > 100 |  | 0 |  | 
COc1cc2nc(Nc3cccc(Br)c3)nc(Nc3cccc(Br)c3)c2cc1OC | 13.2 | 25.3 |  | 0 |  | 
COc1ccc(CCCCNc2ncnc3cc(OC)c(OC)cc23)cc1OC | > 100 | > 100 |  | 0 |  | 
COc1cc2nc3nccn3c(Nc3cccc(Br)c3)c2cc1OC | 6.8 | 6.6 |  | 0 |  | 
COc1cccc(Nc2ncnc3cc(OC)c(OC)cc23)c1 | 11.7 | 77 | 1.6 |  | 706 | 
COc1cc2nc(Nc3cccc(Br)c3)n3nnnc3c2cc1OC | > 100 | > 100 |  | 0 |  | 
COc1ccc(Nc2ncnc3cc(OC)c(OC)cc23)cc1OC | > 100 | > 100 | 9.4 |  |  | 
COc1cc2ncnc(N3CCN(c4ccc(Cl)cc4)CC3)c2cc1OC | 24.7 | 85 | 0.0047 |  |  | 
COc1cc2ncnc(N3CCN(c4cccc(C(F)(F)F)c4)CC3)c2cc1OC | 4.7 | 3.9 |  | 0 |  | 
COc1cc2ncnc(N(C)c3cccc(Br)c3)c2cc1OC |  |  |  | 0 |  | 0
COc1cc2ncnc(N3CCN(c4ccccn4)CC3)c2cc1OC | 63.5 | 67.4 |  | 0 |  | 
COc1ccc(N2CCN(c3ncnc4cc(OC)c(OC)cc34)CC2)cc1 | > 100 | > 100 |  | 0 |  | 
COc1cc2nc(N3CCOCC3)nc(N3CCOCC3)c2cc1OC | > 100 | > 100 |  | 0 |  | 

SMILES | IC50 (EGFR (human) [1]) [µM] | IC50 (EGFR (human) [2]) [µM] | IC50 (EGFR (human) [3]) [µM] | inhibition (EGFR (human) [3]) | IC50 (EGFR (human) [4]) [nM] | inhibition (EGFR (human) [4])
COc1cc2ncnc(N3CCN(c4ccccc4OC)CC3)c2cc1OC | 1.4 | 2.1 |  | 0 |  | 
COc1cc2ncnc(N3CCN(Cc4ccccc4)CC3)c2cc1OC | 21.8 | 34.6 | 17.9 |  |  | 
COc1ccc(CCNc2ncnc3cc(OC)c(OC)cc23)cc1OC | 26.5 | 30 |  | 0 |  | 
COc1cc2ncnc(N3CCOCC3)c2cc1OC | > 100 | > 100 |  | 0 |  | 
COc1cc2c(Nc3cccc(Br)c3)nc3nnnn3c2cc1OC | > 100 | > 100 |  | 0 |  | 
COc1cccc(N2CCN(c3ncnc4cc(OC)c(OC)cc34)CC2)c1 | 38.7 | 58.8 |  | 0 |  | 
COc1cc2ncnc(N3CCN(c4ccccc4F)CC3)c2cc1OC | > 100 | > 100 |  | 0 |  | 
COc1cc2ncnc(N3CCSCC3)c2cc1OC | > 100 | > 100 |  | 0 |  | 
COc1cc2ncnc(N3CCN(c4ccccc4C)CC3)c2cc1OC | > 100 | > 100 |  | 0 |  | 
COc1cc2ncnc(N3CCNCC3)c2cc1OC | > 100 | > 100 |  | 0 |  | 
COc1ccc(CNc2ncnc3cc(OC)c(OC)cc23)cc1OC | 27.1 | 30 | 31.6 |  |  | 
COc1cc2ncnc(N3CCN(c4ccccc4Cl)CC3)c2cc1OC | 13.7 | 14.6 |  | 0 |  | 
COc1cc2ncnc(N3CCN(c4ccccc4)CC3)c2cc1OC | 30.8 | 33.6 |  | 0 |  | 
COc1cc2ncnc(Nc3ccccc3[N+](=O)[O-])c2cc1OC | 4.4 | > 100 | 0.0437 |  | 563 | 
COc1cc2ncnc(N3CCS(=O)(=O)CC3)c2cc1OC | > 100 | > 100 |  | 0 |  | 
COc1cc2ncnc(N3CCN(c4ccc(F)cc4)CC3)c2cc1OC | > 100 | > 100 |  | 0 |  | 
